This is an account of results in ChEMBL document CHEMBL1201862, “PubChem BioAssay data set” (2004).

Structures are written as SMILES.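 Where inhibition never reached the appropriate level, the endpoint shown equals the highest concentration tested. Otherwise, values were interpolated linearly from a five-concentration, 48-hour dose response in 96-well plates. Abbreviation: GI50, concentration required for 50% inhibition of growth.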 The source made the active and inactive calls. Cut-off read from the data, not from the text of the source: active = GI50 up to about 1.1 µM and inactive = higher. A value given as a limit tells only on which side of the number the result lay.

Among the test systems are NCI-H23; HOP-92; SK-OV-3; EKVX; HL-60; KM12; OVCAR-3; TK-10; Malme-3M; OVCAR-8; UACC-257; 786-0; SF-295; SN12C; UO-31; OVCAR-4; SK-MEL-2; SW-620; COLO 205; A498.
Holding throughout (assay): growth of human tumour cells (NCI), 48 h

On to `CCOc1ncn(-c2ccc(NC(=S)Nc3cnccn3)cc2)n1`, for which the GI50 in the assay on NCI-H23, in the assay on HOP-92, with SK-OV-3, in the assay with EKVX, in the assay with HL-60 and in the assay on KM12 was > 10 µM (inactive) throughout. Moreover, the GI50 in the assay with OVCAR-3, in the assay with TK-10, in the assay on Malme-3M, in the assay on OVCAR-8, in the assay with UACC-257 and with 786-0 was > 10 µM (inactive) throughout. Moreover, the GI50 with SF-295, in the assay on SN12C, with UO-31, in the assay with OVCAR-4 and in the assay on SK-MEL-2 was > 10 µM (inactive) in each case.
As for `COc1ccc(/C(C#N)=C2/O/C(=N/N)C(c3ccc(OC)c(OC)c3)C2=O)cc1OC` (stereo not given), the GI50 with NCI-H23, in the assay on HOP-92, with SW-620, in the assay on SK-OV-3, with EKVX and in the assay with HL-60 was > 100 µM (inactive) each time. Further, the GI50 in the assay on KM12, in the assay with OVCAR-3, with TK-10, with Malme-3M, in the assay with UACC-257 and in the assay on 786-0 was > 100 µM (inactive) throughout. The GI50 in the assay with SF-295, in the assay with SN12C, in the assay on UO-31 and in the assay with SK-MEL-2 was > 100 µM (inactive) throughout.
As to `COC(=O)C(Cc1cc(OC)c(OC)c(OC)c1)C(=O)OC`, the GI50 in the assay on NCI-H23, in the assay on COLO 205, in the assay with HOP-92, with SW-620, in the assay on SK-OV-3 and in the assay with EKVX was > 320 µM (inactive) each time. For the same compound, the GI50 with HL-60, with KM12, in the assay on OVCAR-3, in the assay with TK-10, with Malme-3M and in the assay on OVCAR-8 was > 320 µM (inactive) throughout. Moreover, the GI50 in the assay with UACC-257, in the assay with 786-0, with SF-295, with SN12C and with SK-MEL-2 was > 320 µM (inactive) each time.
In the case of `COC(=O)[C@H](Cc1ccccc1)NC(=O)c1ccc(CNC(=O)/C=C/c2cccc(Oc3ccccc3)c2)cc1`, the GI50 in the assay on NCI-H23 is 36.7 µM (inactive); with COLO 205 it was 21.3 µM (inactive); in the assay with HOP-92, 5.31 µM (inactive); in the assay on SW-620 it was 9.98 µM (inactive); in the assay with SK-OV-3, 53.5 µM (inactive); in the assay with EKVX it was 30.8 µM (inactive). The GI50 was 40.8 µM (inactive) with KM12; 11.8 µM (inactive) in the assay with OVCAR-3; 24.8 µM (inactive) in the assay with TK-10; 15.1 µM (inactive) in the assay on Malme-3M; 36.4 µM (inactive) in the assay on OVCAR-8; 6.27 µM (inactive) with UACC-257. In addition, the GI50 with 786-0 was 17.3 µM (inactive); in the assay on SF-295 it was 44.1 µM (inactive); in the assay on SN12C, 26.1 µM (inactive); in the assay with A498, 23.1 µM (inactive); with UO-31, 26.7 µM (inactive); with OVCAR-4, 34.4 µM (inactive). Further, the GI50 in the assay with SK-MEL-2 is 10.3 µM (inactive).
`COC(=O)CC[N+]1=CCC(c2ccccc2)(c2ccccc2)O1`: the GI50 in the assay on NCI-H23, with COLO 205, with HOP-92, in the assay on SW-620, in the assay on SK-OV-3 and with EKVX was > 100 µM (inactive) throughout. The GI50 in the assay with KM12, in the assay on OVCAR-3, in the assay on TK-10, with OVCAR-8, in the assay with UACC-257 and with 786-0 was > 100 µM (inactive) each time. For the same compound, the GI50 in the assay on SF-295, in the assay with SN12C, with A498, in the assay on UO-31, in the assay on OVCAR-4 and in the assay on SK-MEL-2 was > 100 µM (inactive) each time.
As for `COC(OC)C1OC(CO)C(n2cc(C)c(=O)[nH]c2=O)C1O` (stereo not given), the GI50 with NCI-H23, with COLO 205, in the assay on HOP-92, with SW-620, in the assay with SK-OV-3 and in the assay on EKVX was > 100 µM (inactive) throughout. In addition, the GI50 in the assay on KM12, in the assay with OVCAR-3, in the assay on TK-10, in the assay with Malme-3M, with OVCAR-8 and with UACC-257 was > 100 µM (inactive) throughout. The GI50 in the assay with 786-0, in the assay on SF-295, with SN12C, in the assay on A498, in the assay with UO-31 and in the assay with OVCAR-4 was > 100 µM (inactive) each time. The GI50 in the assay with SK-MEL-2 is > 100 µM (inactive).
In the case of `CC(C)C(C/C=C1/CC(CO)(COC(=O)c2ccccc2)OC1=O)C(C)C` (stereo not given), the GI50 in the assay on NCI-H23 was 18.1 µM (inactive); with COLO 205, 3.63 µM (inactive); with HOP-92, 17.5 µM (inactive); in the assay with SW-620, 16.4 µM (inactive); in the assay on SK-OV-3, 45.4 µM (inactive); in the assay with EKVX it was 19.2 µM (inactive). Moreover, the GI50 in the assay on KM12 is 15.9 µM (inactive); in the assay with OVCAR-3 it was 17.5 µM (inactive); with TK-10, 16.5 µM (inactive); in the assay with Malme-3M, 12 µM (inactive); in the assay with OVCAR-8, 22.4 µM (inactive); in the assay with UACC-257, 24.8 µM (inactive). In addition, the GI50 is 11 µM (inactive) in the assay with 786-0; 12.2 µM (inactive) in the assay with SF-295; 15.5 µM (inactive) in the assay on SN12C; 18.2 µM (inactive) with A498; 16.3 µM (inactive) in the assay with UO-31; 15 µM (inactive) in the assay on OVCAR-4. Moreover, the GI50 in the assay on SK-MEL-2 is > 100 µM (inactive).
For the compound `Cc1ccc(NCCO)cc1`, the GI50 is > 100 µM (inactive) with NCI-H23; > 100 µM (inactive) in the assay with COLO 205; 97.1 µM (inactive) with HOP-92; > 100 µM (inactive) with SW-620; > 100 µM (inactive) in the assay with SK-OV-3; > 100 µM (inactive) in the assay on EKVX. Besides, the GI50 in the assay with HL-60, in the assay on KM12, with OVCAR-3, in the assay with TK-10, in the assay on Malme-3M and with OVCAR-8 was > 100 µM (inactive) throughout. Also, the GI50 with UACC-257, in the assay on 786-0, with SF-295, with SN12C, in the assay with UO-31 and in the assay on OVCAR-4 was > 100 µM (inactive) throughout. Also, in the assay on SK-MEL-2, the GI50 was > 100 µM (inactive).
In the case of `CC1Cc2c(cc(N)nc2Br)NC1=O` (stereo not given), the GI50 with NCI-H23 was > 100 µM (inactive); in the assay on COLO 205 it was > 100 µM (inactive); in the assay on HOP-92, 45.9 µM (inactive); in the assay on SW-620, > 100 µM (inactive); in the assay with SK-OV-3, > 100 µM (inactive); in the assay on EKVX, 11 µM (inactive). Also, the GI50 is > 10 µM (inactive) in the assay on HL-60; > 100 µM (inactive) in the assay with KM12; > 100 µM (inactive) with OVCAR-3; > 100 µM (inactive) with TK-10; > 100 µM (inactive) in the assay with Malme-3M; > 100 µM (inactive) in the assay with OVCAR-8. The GI50 with UACC-257, in the assay with 786-0, in the assay with SF-295, with SN12C, in the assay with UO-31 and with OVCAR-4 was > 100 µM (inactive) throughout. Besides, in the assay with SK-MEL-2, the GI50 is > 100 µM (inactive).
Take `CC12c3c4cccc3Oc3cc(N)cc(c31)Oc1cc(N)cc(c12)O4`: the GI50 was 8.43 µM (inactive) in the assay on NCI-H23; 3.29 µM (inactive) in the assay with COLO 205; 21.4 µM (inactive) with HOP-92; 3.48 µM (inactive) in the assay on SW-620; 4.11 µM (inactive) with SK-OV-3; 3.38 µM (inactive) with EKVX. Also, the GI50 in the assay on KM12 was 4.26 µM (inactive); with OVCAR-3, 2.41 µM (inactive); in the assay on TK-10, 10 µM (inactive); in the assay on Malme-3M, 2.99 µM (inactive); in the assay with OVCAR-8, 0.524 µM (active); with UACC-257, 5.71 µM (inactive). Besides, the GI50 is 2.56 µM (inactive) in the assay on 786-0; 2.53 µM (inactive) in the assay on SF-295; 8.28 µM (inactive) in the assay with SN12C; 2.74 µM (inactive) in the assay with A498; 17.7 µM (inactive) in the assay with UO-31; 10.4 µM (inactive) in the assay with OVCAR-4. The GI50 with SK-MEL-2 is 9.86 µM (inactive).
Regarding `CC1=CC(=O)[C@@H](O)[C@]2(C)[C@H]3[C@@]4(O)OC[C@]35[C@H]([C@@H](C)[C@H]4O)[C@@H](O)C(=O)O[C@@H]5C[C@@H]12`, the GI50 with NCI-H23 was 0.192 µM (active); in the assay on COLO 205, 0.543 µM (active); in the assay with HOP-92, 0.327 µM (active); in the assay on SW-620 it was 0.428 µM (active); in the assay with SK-OV-3, 0.607 µM (active); with EKVX, 0.771 µM (active). The GI50 in the assay on KM12 was 0.202 µM (active); in the assay on OVCAR-3, 0.247 µM (active); in the assay with TK-10, 0.338 µM (active); with Malme-3M, 0.0438 µM (active); with OVCAR-8, 0.279 µM (active); in the assay with UACC-257, 0.276 µM (active). In addition, the GI50 with 786-0 is 0.349 µM (active); in the assay with SF-295, 0.339 µM (active); in the assay with A498, 0.448 µM (active); in the assay on UO-31, 0.416 µM (active); with OVCAR-4, 0.597 µM (active); with SK-MEL-2 it was 0.219 µM (active).
